These results are taken from ChEMBL document CHEMBL1136999, “Discovery of novel phosphonate derivatives as hepatitis C virus NS3 protease inhibitors” (Bioorg Med Chem Lett, 2009).

Data set [1] in a line: Inhibition of HCV NS3 protease. Details: species or system Hepacivirus hominis.
For the next data set, the system named is Hepatitis C virus. Description: Antiviral activity against HCV in human HuH7 cells by replicon assay. It counts as functional, organism-based, Hepacivirus hominis. As to conditions: Huh-7. (A replicon is a self-replicating genome or part of one, used to study replication in cells.)
A short description of data set [2]: Apparent systemic clearance in dog at 1.1 mg/kg, iv relative to liver blood flow. It counts as ADME, organism-based, Canis lupus familiaris. Details: dose 1.1 mg/kg, route intravenous. As to conditions: in vivo.
Data set [3] in a line: Cytotoxicity against human HuH7 cells. It counts as cell-based, Huh-7.
A short description of data set [4]: Apparent permeability from apical to basolateral side in human Caco-2 cells. It counts as ADME, cell-based. Background: Passage across Caco-2 layers is used to estimate intestinal permeability.
Data set [5] can be described thus: Oral bioavailability in dog at 2.7 mg/kg. As to conditions: in vivo. It counts as ADME, organism-based, Canis lupus familiaris.

Bounds are passed on as bounds.

In the case of `C=CC1C[C@]1(NC(=O)[C@@H]1C[C@@H](Oc2cc(-c3csc(NC(C)C)n3)nc3cc(OC)ccc23)CN1C(=O)[C@@H](NC(=O)OC1CCCC1)C(C)(C)C)P(=O)(OCOC(=O)OCC)OCOC(=O)OCC` (stereo partly specified), the half-inhibitory concentration (IC50) in data set [1] was determined as 280 nM. Also, the EC50 in the data set with Hepatitis C virus was 39 nM. The clearance in data set [2] is 28.3 mL/min/kg.
Molecule `C=CC1C[C@]1(NC(=O)[C@@H]1C[C@@H](Oc2cc(-c3csc(NC(C)C)n3)nc3cc(OC)ccc23)CN1C(=O)[C@@H](NC(=O)OC1CCCC1)C(C)(C)C)C(=O)O` (stereo partly specified) displayed an IC50 in data set [1] of 3 nM. The response with Hepatitis C virus was half-maximal at 6 nM (EC50). Further, in data set [3], the CC50 is greater than 50000 nM.
Take `C=CC1C[C@]1(NC(=O)[C@@H]1C[C@@H](Oc2cc(-c3csc(NC(C)C)n3)nc3cc(OC)ccc23)CN1C(=O)[C@@H](NC(=O)OC1CCCC1)C(C)(C)C)P(=O)(O)O` (stereo partly specified): the IC50 in data set [1] was found to be 0.9 nM. In the data set on Hepatitis C virus, the EC50 worked out at 92 nM. The same molecule showed a CC50 in data set [3] greater than 50000 nM. Moreover, the Papp A→B in data set [4] was found to be 0.2 ×10⁻⁶ cm/s. Further, the bioavailability in data set [5] stood at 1%.
For the molecule `C=CC1C[C@]1(NC(=O)[C@@H]1C[C@@H](Oc2cc(-c3csc(NC(C)C)n3)nc3cc(OC)ccc23)CN1C(=O)[C@@H](NC(=O)OC1CCCC1)C(C)(C)C)P(=O)(O)OCC` (stereo partly specified), the IC50 in data set [1] stood at 7 nM. The same molecule had an EC50 in the data set with Hepatitis C virus of 360 nM. Besides, in data set [3], the cytotoxic concentration (CC50) was greater than 50000 nM.
`C=CC1C[C@]1(NC(=O)[C@@H]1C[C@@H](Oc2cc(-c3csc(NC(C)C)n3)nc3cc(OC)ccc23)CN1C(=O)[C@@H](NC(=O)OC1CCCC1)C(C)(C)C)P(=O)(OCOC(=O)OCC1CC1)OCOC(=O)OCC1CC1` (stereo partly specified): the IC50 in data set [1] worked out at 85 nM. For the same molecule, in the data set on Hepatitis C virus, the midpoint of the response, the EC50, lay at 41 nM.

A word on the IC50: it is the concentration needed to halve the response being measured. Low values mean greater potency in that assay, high ones weaker potency in that assay. What is called EC50 is the concentration that produces a half-maximal response. Low readings indicate higher potency in that assay, high ones lower potency in that assay. The CC50 is the concentration at which the toxic effect on the cells reaches its halfway point. A low value points to greater toxicity to the cells. Usually Papp A→B stands for how fast a substance crosses the layer from the apical side. Usually bioavailability stands for dose-corrected exposure relative to a reference, in per cent. Higher therefore signals much systemic uptake.
